Measurements from ChEMBL document CHEMBL1212812, “Multi-target spectral moment QSAR versus ANN for antiparasitic drugs against different parasite species” (Bioorg Med Chem, 2010).

Columns and labels:
Assay type in all cases: functional, organism-based
Leishmania donovani = assay: Antimicrobial activity against Leishmania donovani
Trypanosoma cruzi = assay: Antimicrobial activity against Trypanosoma cruzi
Trichomonas vaginalis = assay: Antimicrobial activity against Trichomonas vaginalis
Plasmodium falciparum = assay: Antimicrobial activity against Plasmodium falciparum
Entamoeba histolytica = assay: Antimicrobial activity against Entamoeba histolytica

Structure (SMILES)	IC50 (Trypanosoma cruzi; Trypanosoma cruzi) [µM]	IC50 (Leishmania donovani) [µM]	further results
CSc1ccc(CCC[C@H]2C(=O)O[C@@H]3O[C@@]4(C)CC[C@H]5[C@H](C)CC[C@@H]2[C@@]35OO4)cc1	–	1	–
O=C(/C=C/c1ccc2c(c1)OCO2)N1CCOCC1	96	–	–
C[C@@H]1[C@H](O)[C@@H](C)/C=C/C=C/C=C/C=C/C=C/C=C/C=C/[C@H](O[C@@H]2O[C@H](C)[C@@H](O)[C@H](N)[C@@H]2O)C[C@@H]2O[C@](O)(C[C@@H](O)C[C@@H](O)[C@H](O)CC[C@@H](O)C[C@@H](O)CC(=O)O[C@H]1C)C[C@H](O)[C@H]2C(=O)O [AMPHOTERICIN B]	–	–	IC50 (Trichomonas vaginalis): 12 µM
CCCC[C@H]1C(=O)O[C@@H]2O[C@@]3(CCCCc4ccccc4)CC[C@H]4[C@H](C)CC[C@@H]1[C@@]24OO3	–	5	–
COc1ccc2c(c1)cc1c3ccccc3nc-1n2C	2	–	IC50 (Plasmodium falciparum): 5 µM
CCCC[C@@]12CC[C@H]3[C@H](C)CC[C@H]4CC(=O)O[C@H](O1)[C@]43OO2	–	258	–
CCCCN(CCCC)c1c([N+](=O)[O-])cc(S(=O)(=O)Nc2ccccc2)cc1[N+](=O)[O-]	–	3	–
C[C@@H]1CC[C@H]2[C@@H](CCCc3cc(F)cc(F)c3)C(=O)O[C@@H]3O[C@@]4(C)CC[C@@H]1[C@]32OO4	–	50	–
O=c1ncnc2n([C@H]3O[C@@H](CO)[C@H](O)[C@@H]3O)[nH]cc1-2 [ALLOPURINOL RIBOSIDE]	–	4	–
CC(C)CCC[C@H]1C(=O)O[C@@H]2O[C@@]3(C)CC[C@H]4[C@H](C)CC[C@@H]1[C@@]24OO3	–	9	–
CCO[C@H]1O[C@@H]2O[C@@]3(C)CC[C@H]4[C@H](C)CC[C@@H]([C@H]1C)[C@@]24OO3 [ARTEMOTIL]	–	45	IC50 (Plasmodium falciparum): 1000 µM
C[C@@H]1CC[C@H]2CC(=O)O[C@@H]3O[C@@]4(CCCc5ccc(Cl)cc5)CC[C@@H]1[C@@]23OO4	–	11	–
C=CC[C@H]1C(=O)O[C@@H]2O[C@@]3(C)CC[C@H]4[C@H](C)CC[C@@H]1[C@@]24OO3	–	18	–
C[C@@H]1CC[C@H]2[C@@H](CCCc3cccc(F)c3)C(=O)O[C@@H]3O[C@@]4(C)CC[C@@H]1[C@]32OO4	–	4	–
O=C(/C=C/c1ccc2c(c1)OCO2)N1CCCCC1 [ILEPCIMIDE]	97	–	–
COc1ccc2cc3c4ccccc4nc-3n(C)c2c1	1	–	IC50 (Plasmodium falciparum): 2 µM
N#CSCCOc1ccc(Nc2ccccc2)cc1	3	–	–
N#CSCCOc1ccc2[nH]c3ccccc3c2c1	10	–	–
CCCN(CCC)c1c([N+](=O)[O-])cc(S(=O)(=O)N(c2ccccc2)c2ccccc2)cc1[N+](=O)[O-]	–	100	–
C[C@@H]1CC[C@H]2[C@@H](CCCCc3ccccc3)C(=O)O[C@@H]3O[C@@]4(C)CC[C@@H]1[C@]32OO4	–	8	–
C[C@@H]1CC[C@H]2[C@@H](CCCc3ccc(C(F)(F)F)cc3)CO[C@@H]3O[C@@]4(C)CC[C@@H]1[C@]32OO4	–	2	–
C[C@@H]1CC[C@H]2[C@@H](CCCc3ccc(Cl)c(Cl)c3)CO[C@@H]3O[C@@]4(C)CC[C@@H]1[C@]32OO4	–	2	–
CCCN(CCC)c1c([N+](=O)[O-])cc(S(=O)(=O)Nc2cc(Cl)cc(Cl)c2)cc1[N+](=O)[O-]	–	4	–
Cn1c2nc3ccc(C#N)cc3c-2cc2cc(F)ccc21	32	–	–
[N-]=[N+]=NCCOc1ccc(Oc2ccccc2)cc1	70	–	–
C[S+]([O-])CCCCN=C=S (centres undefined) [SULFORAPHANE]	120	–	IC50 (Trypanosoma cruzi): 102 µM

Structure (SMILES)	IC50 (Trypanosoma cruzi; Trypanosoma cruzi) [µM]	IC50 (Leishmania donovani) [µM]	further results
O=C(/C=C/C=C/c1ccc2c(c1)OCO2)NCC1CCCCC1	81	–	–
CC(=O)N1CCN(c2ccc(OCC3COC(Cn4ccnc4)(c4ccc(Cl)cc4Cl)O3)cc2)CC1 (centres undefined) [KETOCONAZOLE]	3	2	–
N#CSCCOc1ccc([S+]([O-])c2ccccc2)cc1 (centres undefined)	8	–	–
C[C@@H]1CC[C@H]2[C@@H](CCCc3ccc(Cl)cc3)C(=O)O[C@@H]3O[C@@]4(C)CC[C@@H]1[C@]32OO4	–	12	–
O=C(/C=C/C=C/c1ccc2c(c1)OCO2)OC1CCCCC1	83	–	–
O=C(Cn1ccnc1[N+](=O)[O-])NCc1ccccc1 [BENZNIDAZOLE]	3	–	–
O=C(/C=C/C=C/c1ccc2c(c1)OCO2)N1CCCCC1 [PIPERINE]	5	–	–
Cc1ncc([N+](=O)[O-])n1CCO [METRONIDAZOLE]	–	–	IC50 (Trichomonas vaginalis): 3 µM
C[C@@H]1CC[C@H]2[C@@H](CCCc3ccc(S(C)(=O)=O)cc3)C(=O)O[C@@H]3O[C@@]4(C)CC[C@@H]1[C@]32OO4	–	54	–
CCC[C@H]1C(=O)O[C@@H]2O[C@@]3(C)CC[C@H]4[C@H](C)CC[C@@H]1[C@@]24OO3	–	17	–
NCCC[C@](N)(C(=O)O)C(F)F [EFLORNITHINE, (S)-]	–	225	–
CCOC(=O)CC[C@@]12CC[C@H]3[C@H](C)CC[C@H]4CC(=O)O[C@H](O1)[C@]43OO2	–	31	–
C(/C=C/c1ccc2c(c1)OCO2)=C\CN1CCCCC1	10	–	–
CCC[C@@]12CC[C@H]3[C@H](C)CC[C@H]4CC(=O)O[C@H](O1)[C@]43OO2	–	41	–
O=C(CCCCc1ccc2c(c1)OCO2)N1CCCCC1 [TETRAHYDROPIPERINE]	19	–	–
O=C(/C=C/C=C/C=C/c1ccc2c(c1)OCO2)N1CCCCC1	7	–	–
C[C@@H]1CC[C@H]2[C@@H](CCCC(F)(F)F)C(=O)O[C@@H]3O[C@@]4(C)CC[C@@H]1[C@]32OO4	–	79	–
CC[C@H]1C(=O)O[C@@H]2O[C@@]3(C)CC[C@H]4[C@H](C)CC[C@@H]1[C@@]24OO3	–	61	–
c1ccc(CSCCOc2ccc(Oc3ccccc3)cc2)cc1	60	–	–
C[C@@H]1CC[C@H]2[C@@H](CCCc3cccc(Cl)c3)CO[C@@H]3O[C@@]4(C)CC[C@@H]1[C@]32OO4	–	4	–
c1ccc(Oc2ccc(OCN3CC3)cc2)cc1	42	–	–
C[C@@H]1CC[C@H]2CC(=O)O[C@@H]3O[C@@]4(C)CC[C@@H]1[C@@]23OO4	–	242	–
O=P(O)(O)C(O)(Cc1c[nH]cn1)P(=O)(O)O	–	–	IC50 (Entamoeba histolytica): 200 µM; IC50 (Plasmodium falciparum): 200 µM
O=P(O)(O)C(N(C1CCCCC1)C1CCCCC1)P(=O)(O)O [(DICYCLOHEXYLAMINO)METHYLENEDIPHOSPHONIC ACID]	–	–	IC50 (Entamoeba histolytica): 200 µM; IC50 (Plasmodium falciparum): 200 µM
C[C@@H]1CC[C@H]2[C@H](CCCc3ccccc3)C(=O)O[C@@H]3O[C@@]4(C)CC[C@@H]1[C@]32OO4	–	45	–
Nc1ncnc2c1ncn2[C@@H]1O[C@H](C[C@@H](N)CC[C@H](N)C(=O)O)[C@@H](O)[C@H]1O [SINEFUNGIN]	–	1	–

Structure (SMILES)	IC50 (Trypanosoma cruzi; Trypanosoma cruzi) [µM]	IC50 (Leishmania donovani) [µM]	further results
O=P(O)(O)C(N1CCCCC1)P(=O)(O)O	–	–	IC50 (Entamoeba histolytica): 200 µM; IC50 (Plasmodium falciparum): 200 µM
O=P(O)(O)C(O)(C1CCCCC1)P(=O)(O)O [CYCLOHEXYL(HYDROXY)METHYLENEDIPHOSPHONIC ACID]	–	–	IC50 (Entamoeba histolytica): 200 µM; IC50 (Plasmodium falciparum): 200 µM
CCCCCCCCCCCCCCCCCC(O)(P(=O)(O)O)P(=O)(O)O	–	–	IC50 (Entamoeba histolytica): 200 µM; IC50 (Plasmodium falciparum): 200 µM
O=P(O)(O)C(Nc1ncc(Br)cc1Br)P(=O)(O)O	–	–	IC50 (Entamoeba histolytica): 29 µM; IC50 (Plasmodium falciparum): 200 µM
O=P(O)(O)C(O)(CCc1cccnc1)P(=O)(O)O	–	–	IC50 (Entamoeba histolytica): 200 µM; IC50 (Plasmodium falciparum): 200 µM
C[C@@H]1CC[C@H]2[C@@H](CCCc3ccc(Cl)cc3)CO[C@@H]3O[C@@]4(C)CC[C@@H]1[C@]32OO4	–	5	–
C[C@]12CC[C@H](O)C[C@@H]1CC[C@@H]1[C@@H]2CC[C@@]2(C)[C@H]1CC[C@@H]2[C@@](C)(O)C1CCCCN1 (some centres undefined)	1	–	–
CSCCOc1ccc(Oc2ccccc2)cc1	100	–	–
CCCC[C@H]1C(=O)O[C@@H]2O[C@@]3(C)CC[C@H]4[C@H](C)CC[C@@H]1[C@@]24OO3	–	12	–
COc1ccc(CCNC(=O)/C=C/C=C/c2ccc3c(c2)OCO3)cc1OC	66	–	–
CCCN(CCC)C(P(=O)(O)O)P(=O)(O)O [(DIPROPYLAMINO)METHYLENEDIPHOSPHONIC ACID]	–	–	IC50 (Entamoeba histolytica): 200 µM; IC50 (Plasmodium falciparum): 200 µM
O=P(O)(O)C(N1CCCCCC1)P(=O)(O)O [N-(HEXAMETHYLENEIMINO)METHYLENEBISPHOSPHONIC ACID]	–	–	IC50 (Entamoeba histolytica): 200 µM; IC50 (Plasmodium falciparum): 200 µM
NCCCC(O)(P(=O)(O)O)P(=O)(O)O [ALENDRONIC ACID]	–	–	IC50 (Entamoeba histolytica): 200 µM; IC50 (Plasmodium falciparum): 200 µM
Cc1csc(NC(P(=O)(O)O)P(=O)(O)O)n1	–	–	IC50 (Entamoeba histolytica): 200 µM; IC50 (Plasmodium falciparum): 5 µM
CCCCCc1ccc(NC(P(=O)(O)O)P(=O)(O)O)cc1	–	–	IC50 (Entamoeba histolytica): 132 µM; IC50 (Plasmodium falciparum): 46 µM
O=P(O)(O)C(Nc1ccc(O)cn1)P(=O)(O)O	–	–	IC50 (Entamoeba histolytica): 96 µM; IC50 (Plasmodium falciparum): 197 µM
CCCC[C@H]1C(=O)O[C@@H]2O[C@@]3(CC)CC[C@H]4[C@H](C)CC[C@@H]1[C@@]24OO3	–	36	–
COc1ccc(CCC[C@H]2C(=O)O[C@@H]3O[C@@]4(C)CC[C@H]5[C@H](C)CC[C@@H]2[C@@]35OO4)cc1	–	12	–
C[C@@H]1CC[C@H]2[C@@H](CCCc3ccc(Cl)cc3)C(O)O[C@@H]3O[C@@]4(C)CC[C@@H]1[C@]32OO4 (some centres undefined)	–	5	–
O=P(O)(O)C(NC1CCCCCC1)P(=O)(O)O [INCADRONIC ACID]	–	–	IC50 (Entamoeba histolytica): 200 µM; IC50 (Plasmodium falciparum): 200 µM
O=P(O)(O)C(Nc1ccc2c(c1)CCC2)P(=O)(O)O	–	–	IC50 (Entamoeba histolytica): 200 µM; IC50 (Plasmodium falciparum): 200 µM
O=P(O)(O)CC(c1cccnc1)P(=O)(O)O (centres undefined)	–	–	IC50 (Entamoeba histolytica): 200 µM; IC50 (Plasmodium falciparum): 200 µM
O=P(O)(O)C(Nc1cccc(-c2ccccc2)c1)P(=O)(O)O	–	–	IC50 (Entamoeba histolytica): 7 µM; IC50 (Plasmodium falciparum): 200 µM
C[C@@H]1CC[C@H]2[C@@H](CCCc3ccc(C(F)(F)F)cc3)C(O)O[C@@H]3O[C@@]4(C)CC[C@@H]1[C@]32OO4 (some centres undefined)	–	3	–

Now from value to compound, other results behind:

IC50 (Trypanosoma cruzi; Trypanosoma cruzi) [µM]	Structure (SMILES)	IC50 (Leishmania donovani) [µM]	further results
70	[N-]=[N+]=NC(CO)COc1ccc(Oc2ccccc2)cc1 (centres undefined)	–	–
32	Cn1c2nc3ccccc3c-2cc2cc(Br)ccc21	–	–
4	Cc1ccc2c(c1)cc1c3ccccc3nc-1n2C	–	IC50 (Plasmodium falciparum): 2 µM
70	O=C=NCCOc1ccc(Oc2ccccc2)cc1	–	–
115	O=C(O)/C=C/C=C/c1ccc2c(c1)OCO2 [PIPERIC ACID]	–	–
